Assay results: patent publication US12559529B2, “NPY2 receptor agonists” (Boehringer Ingelheim International GmbH, priority 2019, dated 2026)
*1 amine or outer side, *2 acyl side, *3 side chain or, on linkers, in order; H or OH if unused. Where a SMILES comes first, the peptide text is derived from it. Side-chain parts run from the residue outwards. The star is where a group is joined. C18 diacid = O=C(O)CCCCCCCCCCCCCCCCC(=O)*; γGlu = O=C(O)[C@H](CCC(=O)[*:2])N[*:1]; Isovaleryl = CC(C)CC(=O)*; AEEA = NCCOCCOCC(=O)O

Tests used:
normal NMRI mice = experiment: Effect on acute food intake in normal NMRI mice; assay type: in vivo; settings: male NMRI mice, 10 nmol/kg subcutaneously once
Procedure: Male NMRI mice were obtained from Charles River (Charles River, Research Models & Services Germany GmbH) or from Jan Vier (Jan Vier Labs, France) at 5 weeks of age. […] Room temperature was controlled to 21° C.±1° C., with 60%+20% humidity.
Animals were transferred 5-7 days before the start of the study to a real-time food intake monitoring system, HM-2 system (MBRose, Denmark), to allow acclimatization to experimental conditions. As the animals were uniquely identified with microchips, each individual animal was identified by its microchip upon entry and exit from the food channel. Randomization of the mice for each study group (n=7-8) was based on body weight measured the day before the start of the study. A vehicle-treated (50 mM phosphate buffer pH7 with 5% Mannitol) group was included in each experiment. Six hours before the start of the night phase animals were fasted. One hour before the dark phase animals were dosed once subcutaneously (10 nmol/kg) with test peptide. […] The food intake of the treated groups was normalized (in %) to the average food intake of the group receiving vehicle (Table 7). Statistical significance was evaluated using One-way analysis of variance with Turkey's multiple comparison test. P<0.05 was considered statistically significant.

[1] = molecular target: T1, Human Neuropeptide Y2 Receptor (Homo sapiens, UniProt P49146); experiment: Radioligand binding competition assay (RLB); settings: Table 3; human 125I-PYY (1-36) 0.02 nM, Y2 receptor membranes; read-out: Ki
T1 construct: purchased CHEMICON HTS066M
T1 sequence (P49146 1-381): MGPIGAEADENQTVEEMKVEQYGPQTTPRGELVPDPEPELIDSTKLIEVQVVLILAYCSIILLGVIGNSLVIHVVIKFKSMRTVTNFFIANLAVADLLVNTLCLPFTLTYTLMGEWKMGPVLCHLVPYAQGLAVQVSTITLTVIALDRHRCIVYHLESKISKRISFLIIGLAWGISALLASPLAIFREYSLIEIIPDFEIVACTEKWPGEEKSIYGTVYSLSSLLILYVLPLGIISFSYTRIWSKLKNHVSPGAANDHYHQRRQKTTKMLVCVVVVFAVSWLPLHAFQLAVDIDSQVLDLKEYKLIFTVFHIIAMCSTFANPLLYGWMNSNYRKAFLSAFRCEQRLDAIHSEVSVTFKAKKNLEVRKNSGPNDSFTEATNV
Summary of the method: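 Membranes from cells expressing human Y2 receptor (0.5 μg protein/well) were incubated with radioligand and serially diluted peptides in 50 mM HEPES, 5 mM MgCl2, 1 mM CaCl2, 0.2% ovalbumin, pH 7.4, for 2 h at room temperature with shaking. Bound radioactivity was collected by filtration and counted; IC50 from sigmoidal nonlinear regression.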

Compound	Acute Food Intake 24 h [% vehicle] (normal NMRI mice)	Ki [1]
CC(C)CC(=O)N[C@@H](C)C(=O)N1CCC[C@H]1C(=O)N[C@@H](CCC(=O)O)C(=O)N[C@@H](CCCCNC(=O)COCCOCCNC(=O)COCCOCCNC(=O)CC[C@H](NC(=O)CCCCCCCCCCCCCCCCC(=O)O)C(=O)O)C(=O)N1CCC[C@H]1C(=O)N[C@@H](CCC(=O)O)C(=O)N[C@@H](C)C(=O)N[C@@H](CC(=O)O)C(=O)N[C@@H](C)C(=O)N[C@@H](CO)C(=O)N[C@@H](CCC(=O)O)C(=O)N[C@@H](CCC(=O)O)C(=O)N[C@@H](CCC(=O)O)C(=O)N[C@@H](CC(C)C)C(=O)N[C@@H](CCC(N)=O)C(=O)N[C@@H](CCCNC(=N)N)C(=O)N[C@@H](Cc1ccc(O)cc1)C(=O)N[C@@H](Cc1ccc(O)cc1)C(=O)N[C@H](C(=O)N[C@@H](CO)C(=O)N[C@@H](CC(C)C)C(=O)N[C@@H](CCCNC(=N)N)C(=O)N[C@@H](Cc1c[nH]cn1)C(=O)N[C@@H](Cc1ccc(O)cc1)C(=O)N[C@@H](Cc1ccc(O)cc1)C(=O)N[C@@H](CC(N)=O)C(=O)N[C@@H](Cc1c[nH]c2ccccc12)C(=O)N[C@@H](CC(C)C)C(=O)N[C@H](C(=O)N[C@@H](CCCNC(=N)N)C(=O)N[C@@H](CCC(N)=O)C(=O)N[C@@H](CCCNC(=N)N)C(=O)N[C@@H](Cc1ccc(O)cc1)C(N)=O)[C@@H](C)O)C(C)C [Compound 30, N{alpha-4}-(3-methylbutanoyl)-N{epsilon-7}-[2-(2-{2-[2-(2-{2-[(4S)-4-carboxy-4-(17-carboxyheptadecanamido)butanamido]ethoxy}ethoxy)acetamido]ethoxy}ethoxy)acetamido]-[4A,7K,9E,10A,14E,18Q,22V,28Y,30W,31L]hPYY (4-36)]	45 % vehicle	–
CC(C)CC(=O)N[C@@H](C)C(=O)N1CCC[C@H]1C(=O)N[C@@H](CCC(=O)O)C(=O)N[C@@H](CCCCNC(=O)COCCOCCNC(=O)COCCOCCNC(=O)CC[C@H](NC(=O)CCCCCCCCCCCCCCCCC(=O)O)C(=O)O)C(=O)N1CCC[C@H]1C(=O)N[C@@H](CCC(=O)O)C(=O)N[C@@H](CCC(=O)O)C(=O)N[C@@H](CC(=O)O)C(=O)N[C@@H](C)C(=O)N[C@@H](CO)C(=O)N1CCC[C@H]1C(=O)N[C@@H](CCC(=O)O)C(=O)N[C@@H](CCC(=O)O)C(=O)N[C@@H](CC(C)C)C(=O)N[C@@H](CCC(N)=O)C(=O)N[C@@H](CCC(N)=O)C(=O)N[C@@H](Cc1ccc(O)cc1)C(=O)N[C@@H](Cc1ccc(O)cc1)C(=O)N[C@H](C(=O)N[C@@H](CO)C(=O)N[C@@H](CC(C)C)C(=O)N[C@@H](CCCNC(=N)N)C(=O)N[C@@H](Cc1c[nH]cn1)C(=O)N[C@@H](Cc1ccc(O)cc1)C(=O)N[C@@H](Cc1ccc(O)cc1)C(=O)N[C@@H](CC(N)=O)C(=O)N[C@@H](Cc1c[nH]c2ccccc12)C(=O)N[C@@H](CC(C)C)C(=O)N[C@H](C(=O)N[C@@H](CCCNC(=N)N)C(=O)N[C@@H](CCC(N)=O)C(=O)N[C@@H](CCCNC(=N)N)C(=O)N[C@@H](Cc1ccc(O)cc1)C(N)=O)[C@@H](C)O)C(C)C [Compound 58, N{alpha-4}-(3-methylbutanoyl)-N{epsilon-7}-[2-(2-{2-[2-(2-{2-[(4S)-4-carboxy-4-(17-carboxyheptadecanamido)butanamido]ethoxy}ethoxy)acetamido]ethoxy}ethoxy)acetamido]-[4A,7K,9E,18Q,19Q,22V,28Y,30W,31L]hPYY (4-36)]	44 % vehicle	–
CC(C)CC(=O)N[C@@H](C)C(=O)N1CCC[C@H]1C(=O)N[C@@H](CCC(=O)O)C(=O)N[C@@H](CCCCNC(=O)COCCOCCNC(=O)COCCOCCNC(=O)CC[C@H](NC(=O)CCCCCCCCCCCCCCCCC(=O)O)C(=O)O)C(=O)N1CCC[C@H]1C(=O)N[C@@H](CCC(=O)O)C(=O)N[C@@H](CCC(=O)O)C(=O)N[C@@H](CCC(=O)O)C(=O)N[C@@H](C)C(=O)N[C@@H](CO)C(=O)N1CCC[C@H]1C(=O)N[C@@H](CCC(=O)O)C(=O)N[C@@H](CCC(=O)O)C(=O)N[C@@H](CC(C)C)C(=O)N[C@@H](CCC(N)=O)C(=O)N[C@@H](CCCNC(=N)N)C(=O)N[C@@H](Cc1ccc(O)cc1)C(=O)N[C@@H](CCC(=O)O)C(=O)N[C@H](C(=O)N[C@@H](CO)C(=O)N[C@@H](CC(C)C)C(=O)N[C@@H](CCCNC(=N)N)C(=O)N[C@@H](Cc1c[nH]cn1)C(=O)N[C@@H](Cc1ccc(O)cc1)C(=O)N[C@@H](Cc1ccc(O)cc1)C(=O)N[C@@H](CC(N)=O)C(=O)N[C@@H](Cc1c[nH]c2ccccc12)C(=O)N[C@@H](CC(C)C)C(=O)N[C@H](C(=O)N[C@@H](CCCNC(=N)N)C(=O)N[C@@H](CCC(N)=O)C(=O)N[C@@H](CCCNC(=N)N)C(=O)N[C@@H](Cc1ccc(O)cc1)C(N)=O)[C@@H](C)O)C(C)C [Compound 154, N{alpha-4}-(3-methylbutanoyl)-N{epsilon-7}-[2-(2-{2-[2-(2-{2-[(4S)-4-carboxy-4-(17-carboxyheptadecanamido)butanamido]ethoxy}ethoxy)acetamido]ethoxy}ethoxy)acetamido]-[4A,7K,9E,11E,18Q,21E,22V,28Y,30W,31L]hPYY (4-36)] (Isovaleryl-APEK([AEEA-AEEA-γGlu-C18 diacid])PEEEASPEELQRYEVSLRHYYNWLTRQRY-NH2)	73 % vehicle	–
CC(C)CC(=O)N[C@@H](C)C(=O)N1CCC[C@H]1C(=O)N[C@@H](CCC(=O)O)C(=O)N[C@@H](CCCCNC(=O)COCCOCCNC(=O)COCCOCCNC(=O)CC[C@H](NC(=O)CCCCCCCCCCCCCCCCC(=O)O)C(=O)O)C(=O)N1CCC[C@H]1C(=O)N[C@@H](CCC(=O)O)C(=O)N[C@@H](C)C(=O)N[C@@H](CC(=O)O)C(=O)N[C@@H](C)C(=O)N[C@@H](CO)C(=O)N1CCC[C@H]1C(=O)N[C@@H](CCC(=O)O)C(=O)N[C@@H](CCC(=O)O)C(=O)N[C@@H](CC(C)C)C(=O)N[C@@H](CCC(=O)O)C(=O)N[C@@H](CCC(N)=O)C(=O)N[C@@H](Cc1ccc(O)cc1)C(=O)N[C@@H](Cc1ccc(O)cc1)C(=O)N[C@H](C(=O)N[C@@H](CO)C(=O)N[C@@H](CC(C)C)C(=O)N[C@@H](CCCNC(=N)N)C(=O)N[C@@H](Cc1c[nH]cn1)C(=O)N[C@@H](Cc1ccc(O)cc1)C(=O)N[C@@H](Cc1ccc(O)cc1)C(=O)N[C@@H](CC(N)=O)C(=O)N[C@@H](Cc1c[nH]c2ccccc12)C(=O)N[C@@H](CC(C)C)C(=O)N[C@H](C(=O)N[C@@H](CCCNC(=N)N)C(=O)N[C@@H](CCC(N)=O)C(=O)N[C@@H](CCCNC(=N)N)C(=O)N[C@@H](Cc1ccc(O)cc1)C(N)=O)[C@@H](C)O)C(C)C [Compound 159, N{alpha-4}-(3-methylbutanoyl)-N{epsilon-7}-[2-(2-{2-[2-(2-{2-[(4S)-4-carboxy-4-(17-carboxyheptadecanamido)butanamido]ethoxy}ethoxy)acetamido]ethoxy}ethoxy)acetamido]-[4A,7K,9E,10A,18E,19Q,22V,28Y,30W,31L]hPYY (4-36)]	53 % vehicle	–
CC(C)CC(=O)N[C@@H](C)C(=O)N1CCC[C@H]1C(=O)N[C@@H](CCC(=O)O)C(=O)N[C@@H](CCCCNC(=O)COCCOCCNC(=O)COCCOCCNC(=O)CC[C@H](NC(=O)CCCCCCCCCCCCCCCCC(=O)O)C(=O)O)C(=O)N1CCC[C@H]1C(=O)N[C@@H](CCC(=O)O)C(=O)N[C@@H](CCC(=O)O)C(=O)N[C@@H](CCC(=O)O)C(=O)N[C@@H](C)C(=O)N[C@@H](CO)C(=O)N1CCC[C@H]1C(=O)N[C@@H](CCC(=O)O)C(=O)N[C@@H](CCC(=O)O)C(=O)N[C@@H](CC(C)C)C(=O)N[C@@H](CCC(N)=O)C(=O)N[C@@H](CCC(N)=O)C(=O)N[C@@H](Cc1ccc(O)cc1)C(=O)N[C@@H](Cc1ccc(O)cc1)C(=O)N[C@H](C(=O)N[C@@H](CO)C(=O)N[C@@H](CC(C)C)C(=O)N[C@@H](CCCNC(=N)N)C(=O)N[C@@H](Cc1c[nH]cn1)C(=O)N[C@@H](Cc1ccc(O)cc1)C(=O)N[C@@H](Cc1ccc(O)cc1)C(=O)N[C@@H](CC(N)=O)C(=O)N[C@@H](Cc1c[nH]c2ccccc12)C(=O)N[C@@H](CC(C)C)C(=O)N[C@H](C(=O)N[C@@H](CCCNC(=N)N)C(=O)N[C@@H](CCC(N)=O)C(=O)N[C@@H](CCCNC(=N)N)C(=O)N[C@@H](Cc1ccc(O)cc1)C(N)=O)[C@@H](C)O)C(C)C [Compound 243, N{alpha-4}-(3-methylbutanoyl)-N{epsilon-7}-[2-(2-{2-[2-(2-{2-[(4S)-4-carboxy-4-(17-carboxyheptadecanamido)butanamido]ethoxy}ethoxy)acetamido]ethoxy}ethoxy)acetamido]-[4A,7K,9E,11E,18Q,19Q,22V,28Y,30W,31L]hPYY (4-36)] (Isovaleryl-APEK([AEEA-AEEA-γGlu-C18 diacid])PEEEASPEELQQYYVSLRHYYNWLTRQRY-NH2)	–	2.07 nM
